The record followed here is US20070190187A1, “FORMULATION FOR ENHANCED DELIVERY OF PHENETHYLAMINE” (priority 2006, published 2007).

The data set can be described thus: co-administration of phenylethylamine with moiety/moieties that inhibit the enzyme MAO-B. The format is in vivo. To be noted: co-administered with a moiety/moieties that inhibited the effects of the enzyme MAO-B. From the text:
Therefore, the combination of phenylethylamine or derivative thereof and the MAO-B enzyme inhibitor may be formulated as a dietary supplement, other foodstuff, a pharmaceutical, a topical or transdermal compound or a vaccine. The Dietary Supplement Health and Education Act of 1994, commonly referred to as DSHEA, defines “dietary supplement” as any product (except tobacco) that contains at least one of the following: (1) a vitamin, (2) a mineral, (3) an herb or botanical, (4) an amino acid, (5) a dietary substance “for use to supplement the diet by increasing total dietary intake,” or (6) any concentrate, metabolite, constituent, extract, or combination of any of the aforementioned ingredients. Examples of dietary supplements include, but are not limited to nutritional products; sports performance products, including ergogenic sports performing products; weight loss products; and meal replacement products. Dietary supplements may exist in various forms, including, but not limited to tablets, capsules, caplets, powders, drinks including shakes, and solid food items including snack bars, etc. For purposes of the present invention, a foodstuff is defined as a substance that can be used or prepared for use as food or extracted from food.

Take `NCCc1ccccc1` [phenylethylamine, Phenethylamine]: the “amount of phenethylamine absorbed into the bloodstream, cells and tissue” value is “increased amount”; the “amount of phenethylamine allowed to reach the brain and period of time per dose administered before it is metabolized” value is recorded as “a greater amount of phenethylamine or a derivative thereof, is allowed to reach the brain for a greater period of time”.
